Assay results published in ChEMBL document CHEMBL1129007, “The design and synthesis of novel adenosine agonists” (Bioorg Med Chem Lett, 1996).
pEC50: −log10 of the molar value.

Legend:
[1] = Compound was evaluated for the maximal inhibition of (-)-isoproterenol stimulated cAMP accumulation in DDT-1 MF-2 cells; type: functional, Cricetulus griseus
Adenosine receptor A1 = target: T1, Adenosine receptor A1 (Homo sapiens, UniProt P30542); experiment: Compound was evaluated for the Adenosine A1 receptor agonist potency.; type: functional, Cricetulus griseus
T1 sequence (P30542 whole entry): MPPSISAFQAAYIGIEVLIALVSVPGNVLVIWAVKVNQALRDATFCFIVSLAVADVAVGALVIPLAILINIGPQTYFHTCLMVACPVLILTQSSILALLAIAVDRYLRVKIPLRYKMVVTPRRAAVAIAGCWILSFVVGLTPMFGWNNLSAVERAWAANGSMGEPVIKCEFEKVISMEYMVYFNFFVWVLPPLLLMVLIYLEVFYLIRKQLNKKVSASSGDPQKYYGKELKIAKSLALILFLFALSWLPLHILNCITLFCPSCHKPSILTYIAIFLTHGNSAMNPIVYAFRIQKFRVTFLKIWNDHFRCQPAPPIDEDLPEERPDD

| SMILES | Max inhibition [1] [%] | pEC50 (Adenosine receptor A1) |
| --- | --- | --- |
| OC[C@H]1O[C@@H](n2cnc3c(N[C@@H]4CC5CC4C4OC54)ncnc32)[C@H](O)[C@@H]1O (stereo not given in full) | 82 | 8.00 |
| OC[C@H]1O[C@@H](n2cnc3c(NC4CCCC4)ncnc32)[C@H](O)[C@@H]1O [N6-CYCLOPENTYLADENOSINE] | 80 | – |
| OC[C@H]1O[C@@H](n2cnc3c(N[C@H]4CC5CC4C4OC54)ncnc32)[C@H](O)[C@@H]1O (stereo not given in full) | 81 | 9.09 |
